# PMC6291754 (Frontiers in Microbiology, 2018)
# Where “and” joins values, the source holds several entries; their conditions need not be identical. Equal values may be shown once. Read-outs that look alike come from different tables or passages of the source.
# Assays:
# [1] = biological target: A/Chiba/1017/2009 (NA H275Y) neuraminidase (NA) (Influenza A virus, UniProt C7FH46, H275Y); assay type: biochemical, influenza A(H1N1)pdm09 virus
# [2] = biological target: A/Fukui/45/2004 (NA E119V) neuraminidase (NA) (Influenza A virus, UniProt C6ELZ0, E119V); assay type: biochemical, influenza A(H3N2) virus
# [3] = biological target: A/Kagoshima/2/2012 (NA R292K) neuraminidase (NA) (Influenza A virus, UniProt J9TKI7, R292K); assay type: biochemical, influenza A(H3N2) virus
# [4] = biological target: B/Perth/211/2001-197E (NA D197E) neuraminidase (NA) (Influenza B virus, UniProt Q3S340, D197E); assay type: biochemical
# [5] = biological target: B/Perth/211/2001-197D (NA 197D wild-type) neuraminidase (NA) (Influenza B virus, UniProt Q3S340); assay type: biochemical
# [6] = biological target: A/PR/8/34 (PA 38I wild-type) neuraminidase (NA) (Influenza A virus, UniProt P03468); assay type: biochemical, influenza A(H1N1) virus
# [7] = biological target: A/Chiba/1016/2009 (NA 275H wild-type) neuraminidase (NA) (Influenza A virus, UniProt C7FH46); assay type: biochemical, influenza A(H1N1)pdm09 virus
# [8] = biological target: A/Fukui/20/2004 (NA 119E wild-type) neuraminidase (NA) (Influenza A virus, UniProt C6ELZ0); assay type: biochemical, influenza A(H3N2) virus
# [9] = biological target: A/Kagoshima/4/2012 (NA 292R wild-type) neuraminidase (NA) (Influenza A virus, UniProt J9TKI7); assay type: biochemical, influenza A(H3N2) virus
# [10] = biological target: A/PR/8/34-PA/I38T neuraminidase (NA) (Influenza A virus, UniProt P03468)
# [11] = system: influenza A(H1N1) virus with PA E23K; conditions: cited from earlier work
# [12] = system: A/Fukui/20/2004 (NA 119E wild-type); assay: microbe, parasite or virus in culture; assay type: cell-based, influenza A(H3N2) virus; conditions: Influenza A virus, MDCK, 72 h, read-out: IC50, plaque reduction
# [13] = system: B/Perth/211/2001-197E (NA D197E); assay type: cell-based, influenza B virus
# [14] = system: B/Perth/211/2001-197D (NA 197D wild-type); assay: microbe, parasite or virus in culture; assay type: cell-based; conditions: Influenza B virus, MDCK, 72 h, read-out: IC50, plaque reduction
# A/PR/8/34-PA/I38T [15] = assay type: cell-based, influenza A(H1N1) virus
# [16] = system: A/Chiba/1017/2009 (NA H275Y); assay type: cell-based, influenza A(H1N1)pdm09 virus
# [17] = system: A/PR/8/34 (PA 38I wild-type); assay: microbe, parasite or virus in culture; assay type: cell-based, influenza A(H1N1) virus; conditions: Influenza A virus, PR/8, MDCK, 24 h, read-out: IC50, focus reduction
# A/PR/8/34-PA/I38T [18] = assay type: cell-based, influenza A(H1N1) virus; conditions: read-out: IC50, plaque reduction
# [19] = system: influenza A(H3N2) virus with PA E199G; conditions: cited from earlier work
# [20] = system: A/Chiba/1016/2009 (NA 275H wild-type); assay: microbe, parasite or virus in culture; assay type: cell-based, influenza A(H1N1)pdm09 virus; conditions: Influenza A virus, MDCK, 72 h, read-out: IC50, plaque reduction
# [21] = system: A/PR/8/34 (PA 38I wild-type); assay: microbe, parasite or virus in culture; assay type: cell-based, influenza A(H1N1) virus; conditions: Influenza A virus, PR/8, MDCK, 72 h, read-out: IC50, plaque reduction
# [22] = system: influenza A(H1N1) virus with PA I38T; conditions: cited from earlier work
# [23] = system: influenza A(H3N2) virus with PA I38T; conditions: cited from earlier work
# [24] = system: A/Fukui/45/2004 (NA E119V); assay type: cell-based, influenza A(H3N2) virus
# [25] = system: influenza B virus with PA G548R; conditions: cited from earlier work
# [26] = system: B/Perth/211/2001-197E (NA D197E); assay type: cell-based, influenza B virus; remark: listed apart in the source
# [27] = system: influenza A(H3N2) virus with PA A37T; conditions: cited from earlier work
# [28] = system: A/Chiba/1017/2009 (NA H275Y); assay type: cell-based, influenza A(H1N1)pdm09 virus; remark: listed apart in the source
# [29] = system: influenza A(H3N2) virus with PA P632S; conditions: cited from earlier work
# [30] = system: influenza A(H3N2) virus with PA N412D; conditions: cited from earlier work
# [31] = system: A/Chiba/1016/2009 (NA 275H wild-type); assay: microbe, parasite or virus in culture; assay type: cell-based, influenza A(H1N1)pdm09 virus; conditions: Influenza A virus, MDCK, 24 h, read-out: IC50, focus reduction
# [32] = system: influenza A(H3N2) virus with PA V517A; conditions: cited from earlier work
# [33] = system: B/Perth/211/2001-197D (NA 197D wild-type); assay: microbe, parasite or virus in culture; assay type: cell-based; conditions: Influenza B virus, MDCK, 24 h, read-out: IC50, focus reduction
# [34] = system: A/Kagoshima/2/2012 (NA R292K); assay type: cell-based, influenza A(H3N2) virus
# [35] = system: influenza A(H1N1) virus with PA I38F; conditions: cited from earlier work
# [36] = system: A/Fukui/20/2004 (NA 119E wild-type); assay: microbe, parasite or virus in culture; assay type: cell-based, influenza A(H3N2) virus; conditions: Influenza A virus, MDCK, 24 h, read-out: IC50, focus reduction
# [37] = system: influenza A(H1N1) viruses with PA I38T; conditions: cited from earlier work
# [38] = system: A/Kagoshima/4/2012 (NA 292R wild-type); assay: microbe, parasite or virus in culture; assay type: cell-based, influenza A(H3N2) virus; conditions: Influenza A virus, MDCK, 24 h, read-out: IC50, focus reduction
# [39] = system: A/Fukui/45/2004 (NA E119V); assay type: cell-based, influenza A(H3N2) virus; remark: listed apart in the source
# [40] = system: influenza A(H3N2) virus with PA I38M; conditions: cited from earlier work
# [41] = system: A/Kagoshima/2/2012 (NA R292K); assay type: cell-based, influenza A(H3N2) virus; remark: listed apart in the source
# [42] = system: A/Kagoshima/4/2012 (NA 292R wild-type); assay: microbe, parasite or virus in culture; assay type: cell-based, influenza A(H3N2) virus; conditions: Influenza A virus, MDCK, 72 h, read-out: IC50, plaque reduction
# [43] = read-out: IC50, plaque reduction
# [44] = read-out: IC50, focus reduction
compound,measurement,setting,value
"CC(=O)N[C@H]1[C@H]([C@H](O)[C@H](O)CO)OC(C(=O)O)=C[C@@H]1N=C(N)N [Zanamivir, zanamivir]",NA inhibitor susceptibility (WHO criteria),[1],0.5 ± 0.1 NI
CO[C@@H]([C@@H]1OC(C(=O)O)=C[C@H](NC(=N)N)[C@H]1NC(C)=O)[C@H](O)CO [Laninamivir],NA inhibitor susceptibility (WHO criteria),[2],1.2 ± 0.1 NI
same,NA inhibitor susceptibility (WHO criteria),[1],0.3 ± 0.1 NI
same,NA inhibitor susceptibility (WHO criteria),[3],3.9 ± 0.1 NI
same,NA inhibitor susceptibility (WHO criteria),[4],1.9 ± 0.1 NI
same,IC50,[5],1.3 ± 0.3 nM
"CCC(CC)[C@H](NC(C)=O)[C@@H]1[C@H](O)[C@@H](C(=O)O)C[C@H]1N=C(N)N [Peramivir, peramivir]",IC50,[6],0.09 ± 0.01 nM
same,IC50,[2],0.2 ± 0.1 nM
same,NA inhibitor susceptibility (WHO criteria),[2],0.2 ± 0.1 NI
same,IC50,[7],0.1 ± 0.1 nM
same,IC50,[1],28 ± 3.9 nM
same,IC50,[3],35.2 ± 2.6 nM
same,IC50,[4],16.2 ± 6 nM
same,NA inhibitor susceptibility (WHO criteria),[4],16.2 ± 6.0 RI (key: normal inhibition (NI); RI: a 5- to 50-fold increase in IC50 for influenza B viruses; HRI: influenza B viruses with >50-fold increase in IC50)
same,IC50,[5]; read-out: IC50,0.4 ± 0.1 nM
same,IC50,[8],0.2 ± 0.1 nM
same,IC50,[9],0.1 ± 0.1 nM
same,IC50,[10],0.09 nM
same,IC50 fold-change,[10],0.09 ± 0.01 (1.0) fold
"O=C1c2c(O)c(=O)ccn2N([C@@H]2c3ccccc3SCc3c2ccc(F)c3F)[C@@H]2COCCN12 [Baloxavir, baloxavir acid]",fold higher EC50,[11],4.7 fold
same,IC50,[12],0.42 ± 0.15 nM
same,"IC50 fold-change, plaque reduction",[13],5.68 ± 1.00 (2.6) fold
same,IC50,[13]; [43],5.68 nM
same,IC50,[14],2.2 ± 0.28 nM
same,"IC50 fold-change, focus reduction",A/PR/8/34-PA/I38T [15],44 fold
same,IC50,A/PR/8/34-PA/I38T [15]; [44],7.4 nM
same,"IC50 fold-change, plaque reduction",[16],0.21 ± 0.02 (0.8) fold
same,IC50,[16]; [43],0.21 nM
same,IC50,[17],0.17 ± 0.03 nM
same,IC50,A/PR/8/34-PA/I38T [18],2.72 nM
same,fold higher EC50,[19],4.5 fold
same,IC50,[20],0.27 ± 0.09 nM
same,IC50,[21],0.05 ± 0.02 nM
same,fold higher EC50,[22],27.2 fold
same,fold higher EC50,[23],56.6 fold
same,"IC50 fold-change, plaque reduction",[24],0.15 ± 0.02 (0.4) fold
same,IC50,[24]; [43],0.15 nM
same,effect of substitution on baloxavir susceptibility,[25],does not affect baloxavir susceptibility
same,"IC50 fold-change, focus reduction",[26],5.63 ± 2.34 (1.0) fold
same,IC50,[26]; [44],5.63 nM
same,fold higher EC50,[27],8.1 fold
same,"IC50 fold-change, focus reduction",[28],0.53 ± 0.15 (1.0) fold
same,IC50,[28]; [44],0.53 nM
same,effect of substitution on baloxavir susceptibility,[29],not affected
same,effect of substitution on baloxavir susceptibility,[30],not affected
same,IC50,[31],0.5 ± 0.02 nM
same,effect of substitution on baloxavir susceptibility,[32],not affected
same,IC50,[33],5.41 ± 1.99 nM
same,"IC50 fold-change, focus reduction",[34],0.59 ± 0.29 (2.0) fold
same,IC50,[34]; [44],0.59 nM
same,fold higher EC50,[35],10.6 fold
same,IC50,[36],1.18 ± 0.49 nM
same,fold-change in EC50,[37],41 fold and 40 fold
same,IC50,[38],0.29 ± 0.08 nM
same,"IC50 fold-change, focus reduction",[39],0.62 ± 0.04 (0.5) fold
same,IC50,[39]; [44],0.62 nM
same,fold higher EC50,[40],13.8 fold
same,"IC50 fold-change, plaque reduction",[41],0.22 ± 0.09 (1.5) fold
same,IC50,[41]; [43],0.22 nM
same,IC50,[42],0.15 ± 0.06 nM
